The record followed here is ChEMBL document CHEMBL5653631, “A Potent and Selective ULK1 Inhibitor Suppresses Autophagy and Sensitizes Cancer Cells to Nutrient Stress” (iScience, 2018).

Experiment [1] deals with Casein kinase I isoform gamma-3 (Homo sapiens) (UniProt Q9Y6M4). Kind of experiment: Inhibition of human recombinant CK1g3 at 15 nM in presence of ATP by radiometric assay relative to control.
Experiment [2] addresses Serine/threonine-protein kinase 38-like (Homo sapiens) (UniProt Q9Y2H1). Kind of experiment: Inhibition of human recombinant NDR2 at 15 nM in presence of ATP by radiometric assay relative to control.
Experiment [3] deals with T1, Testis-specific serine/threonine-protein kinase 3 (Homo sapiens) (UniProt Q96PN8).
T1 sequence (whole entry): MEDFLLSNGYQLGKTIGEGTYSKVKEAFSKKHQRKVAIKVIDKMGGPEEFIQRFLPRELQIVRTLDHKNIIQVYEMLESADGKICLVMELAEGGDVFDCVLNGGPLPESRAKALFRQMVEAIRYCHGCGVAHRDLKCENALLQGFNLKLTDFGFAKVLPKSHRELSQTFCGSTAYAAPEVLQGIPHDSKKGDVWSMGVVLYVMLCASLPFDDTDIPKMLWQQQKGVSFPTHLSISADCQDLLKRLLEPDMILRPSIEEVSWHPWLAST
Kind of experiment: Inhibition of human recombinant TSSK3 at 15 nM in presence of ATP by radiometric assay relative to control.

For experiment [4], the target named is Protein kinase C delta type (Homo sapiens) (UniProt Q05655). Kind of experiment: Inhibition of human recombinant PKCd at 15 nM related to control ULK1.
For experiment [5], the target named is Ribosomal protein S6 kinase alpha-3 (Homo sapiens) (UniProt P51812). Kind of experiment: Inhibition of human recombinant RSK2 at 15 nM related to control ULK1.
Experiment [6] addresses T1, Testis-specific serine/threonine-protein kinase 3 (Homo sapiens). Kind of experiment: Inhibition of human recombinant TSSK3 at 15 nM related to control ULK1.
Experiment [7] deals with MAP kinase-activated protein kinase 2 (Homo sapiens) (UniProt P49137). Kind of experiment: Inhibition of human recombinant MAPKAPK2 at 40 nM in presence of ATP by radiometric assay relative to control.
Experiment [8] concerns the target Mitogen-activated protein kinase 9 (Homo sapiens) (UniProt P45984). Kind of experiment: Inhibition of human recombinant JNK2 at 40 nM related to control ULK1.
Experiment [9] addresses T2, MAP kinase-activated protein kinase 5 (Homo sapiens) (UniProt Q8IW41).
T2 sequence (whole entry): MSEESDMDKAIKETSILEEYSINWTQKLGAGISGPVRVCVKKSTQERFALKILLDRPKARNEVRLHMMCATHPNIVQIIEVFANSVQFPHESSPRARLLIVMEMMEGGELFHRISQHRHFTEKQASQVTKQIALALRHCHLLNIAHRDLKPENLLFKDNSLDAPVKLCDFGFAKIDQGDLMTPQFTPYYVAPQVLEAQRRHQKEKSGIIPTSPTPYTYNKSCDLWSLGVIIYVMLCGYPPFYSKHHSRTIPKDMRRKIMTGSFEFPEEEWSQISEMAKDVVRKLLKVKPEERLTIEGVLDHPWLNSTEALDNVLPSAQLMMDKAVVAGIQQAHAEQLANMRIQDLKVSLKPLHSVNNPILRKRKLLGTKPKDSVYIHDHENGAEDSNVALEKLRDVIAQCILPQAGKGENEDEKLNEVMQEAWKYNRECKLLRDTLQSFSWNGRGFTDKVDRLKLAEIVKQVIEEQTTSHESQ
Kind of experiment: Inhibition of human recombinant MAPKAPK5 at 40 nM related to control ULK1.

The target of experiment [10] is Serine/threonine-protein kinase 26 (Homo sapiens) (UniProt Q9P289). Kind of experiment: Inhibition of human recombinant MST4 at 40 nM related to control ULK1.
The target of experiment [11] is Protein kinase C iota type (Homo sapiens) (UniProt P41743). Kind of experiment: Inhibition of human recombinant PKCi at 40 nM in presence of ATP by radiometric assay relative to control.
Experiment [12] concerns the target T3, Mitogen-activated protein kinase kinase kinase 3 (Homo sapiens) (UniProt Q99759).
T3 sequence (whole entry): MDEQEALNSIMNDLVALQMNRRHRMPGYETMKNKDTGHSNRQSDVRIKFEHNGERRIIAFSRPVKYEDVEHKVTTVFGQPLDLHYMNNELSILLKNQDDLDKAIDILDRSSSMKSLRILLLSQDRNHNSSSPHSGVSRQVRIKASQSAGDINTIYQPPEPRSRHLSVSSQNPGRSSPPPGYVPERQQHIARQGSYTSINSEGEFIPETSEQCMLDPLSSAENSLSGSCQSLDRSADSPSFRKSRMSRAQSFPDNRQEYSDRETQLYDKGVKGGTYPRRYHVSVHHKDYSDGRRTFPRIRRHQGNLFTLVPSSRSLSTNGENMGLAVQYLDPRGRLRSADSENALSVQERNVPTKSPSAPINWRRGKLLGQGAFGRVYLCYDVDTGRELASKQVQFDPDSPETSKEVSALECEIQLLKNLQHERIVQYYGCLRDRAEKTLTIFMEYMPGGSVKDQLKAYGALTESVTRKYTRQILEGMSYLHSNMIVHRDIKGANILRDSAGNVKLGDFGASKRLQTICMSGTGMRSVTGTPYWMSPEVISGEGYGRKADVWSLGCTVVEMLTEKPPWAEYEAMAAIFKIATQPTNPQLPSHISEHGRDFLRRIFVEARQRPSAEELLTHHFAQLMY
Kind of experiment: Inhibition of human recombinant MAP3K3 at 500 nM related to control ULK1.

Experiment [13] deals with Maternal embryonic leucine zipper kinase (Homo sapiens) (UniProt Q14680). Kind of experiment: Inhibition of human recombinant MELK at 500 nM related to control ULK1.

Usually inhibition stands for the drop in the measured response relative to a control, in per cent.

Chain of MAP kinase-activated protein kinase 2 (Homo sapiens) (P49137 whole entry, looked up): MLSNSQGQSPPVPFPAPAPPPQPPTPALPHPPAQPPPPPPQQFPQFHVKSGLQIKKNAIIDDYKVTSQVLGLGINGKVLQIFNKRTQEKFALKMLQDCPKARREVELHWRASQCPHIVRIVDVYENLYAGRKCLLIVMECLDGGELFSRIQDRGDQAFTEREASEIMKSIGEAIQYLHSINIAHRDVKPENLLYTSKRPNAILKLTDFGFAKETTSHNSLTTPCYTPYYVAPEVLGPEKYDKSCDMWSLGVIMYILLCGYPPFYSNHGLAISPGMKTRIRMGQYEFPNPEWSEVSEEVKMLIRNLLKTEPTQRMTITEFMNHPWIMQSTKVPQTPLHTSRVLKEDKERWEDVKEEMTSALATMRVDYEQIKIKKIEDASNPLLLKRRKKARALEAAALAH
Chain of Ribosomal protein S6 kinase alpha-3 (Homo sapiens) (P51812 whole entry): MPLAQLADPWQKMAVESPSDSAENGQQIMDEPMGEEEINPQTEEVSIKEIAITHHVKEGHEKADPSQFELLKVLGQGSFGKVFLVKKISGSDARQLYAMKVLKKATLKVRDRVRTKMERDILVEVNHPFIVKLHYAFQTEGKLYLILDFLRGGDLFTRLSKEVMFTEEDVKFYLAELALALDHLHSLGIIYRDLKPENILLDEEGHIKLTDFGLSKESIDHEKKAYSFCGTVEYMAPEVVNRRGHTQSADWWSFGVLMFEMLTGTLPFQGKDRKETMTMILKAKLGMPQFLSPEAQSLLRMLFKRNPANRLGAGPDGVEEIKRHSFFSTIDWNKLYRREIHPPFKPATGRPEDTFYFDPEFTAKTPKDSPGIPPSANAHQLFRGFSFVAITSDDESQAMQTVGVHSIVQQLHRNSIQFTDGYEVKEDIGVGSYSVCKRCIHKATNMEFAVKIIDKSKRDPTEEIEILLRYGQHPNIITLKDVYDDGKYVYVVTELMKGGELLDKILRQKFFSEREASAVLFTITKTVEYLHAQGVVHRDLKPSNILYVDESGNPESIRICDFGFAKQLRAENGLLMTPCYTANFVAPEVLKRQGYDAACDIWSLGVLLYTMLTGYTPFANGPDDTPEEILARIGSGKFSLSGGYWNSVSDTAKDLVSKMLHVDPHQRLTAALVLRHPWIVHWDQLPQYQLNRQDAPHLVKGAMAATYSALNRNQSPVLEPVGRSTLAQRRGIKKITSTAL
Chain of Protein kinase C delta type (Homo sapiens) (Q05655 whole entry, looked up): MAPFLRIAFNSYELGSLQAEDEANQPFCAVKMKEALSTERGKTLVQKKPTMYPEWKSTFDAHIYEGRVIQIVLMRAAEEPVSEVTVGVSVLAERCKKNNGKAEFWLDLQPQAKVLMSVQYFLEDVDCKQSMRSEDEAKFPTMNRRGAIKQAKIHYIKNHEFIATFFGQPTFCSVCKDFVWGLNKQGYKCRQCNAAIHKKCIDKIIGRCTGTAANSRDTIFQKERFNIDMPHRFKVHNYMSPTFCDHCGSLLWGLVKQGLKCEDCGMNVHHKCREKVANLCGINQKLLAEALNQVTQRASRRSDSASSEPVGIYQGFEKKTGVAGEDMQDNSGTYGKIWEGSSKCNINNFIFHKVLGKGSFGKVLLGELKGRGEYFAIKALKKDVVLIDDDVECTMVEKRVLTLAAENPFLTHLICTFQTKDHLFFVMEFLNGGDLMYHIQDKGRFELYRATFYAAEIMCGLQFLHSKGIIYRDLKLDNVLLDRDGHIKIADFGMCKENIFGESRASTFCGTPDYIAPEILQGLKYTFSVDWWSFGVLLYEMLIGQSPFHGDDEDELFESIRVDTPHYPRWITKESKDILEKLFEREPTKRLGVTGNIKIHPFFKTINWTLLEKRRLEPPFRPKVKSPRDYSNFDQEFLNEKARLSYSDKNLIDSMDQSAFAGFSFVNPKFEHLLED
Chain of Casein kinase I isoform gamma-3 (Homo sapiens) (Q9Y6M4 whole entry, looked up, canonical isoform): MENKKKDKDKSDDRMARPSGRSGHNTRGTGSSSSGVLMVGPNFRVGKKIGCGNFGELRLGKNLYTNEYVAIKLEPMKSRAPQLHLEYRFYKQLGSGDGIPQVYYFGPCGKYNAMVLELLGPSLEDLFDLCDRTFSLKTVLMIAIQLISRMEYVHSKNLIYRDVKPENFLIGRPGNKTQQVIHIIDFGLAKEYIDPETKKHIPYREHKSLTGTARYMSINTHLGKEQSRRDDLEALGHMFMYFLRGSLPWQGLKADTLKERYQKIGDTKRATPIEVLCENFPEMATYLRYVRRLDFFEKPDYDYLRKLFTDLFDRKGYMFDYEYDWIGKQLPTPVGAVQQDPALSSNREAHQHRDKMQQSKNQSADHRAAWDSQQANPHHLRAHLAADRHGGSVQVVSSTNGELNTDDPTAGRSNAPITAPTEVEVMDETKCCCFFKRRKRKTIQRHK
Chain of Protein kinase C iota type (Homo sapiens) (P41743 whole entry, looked up): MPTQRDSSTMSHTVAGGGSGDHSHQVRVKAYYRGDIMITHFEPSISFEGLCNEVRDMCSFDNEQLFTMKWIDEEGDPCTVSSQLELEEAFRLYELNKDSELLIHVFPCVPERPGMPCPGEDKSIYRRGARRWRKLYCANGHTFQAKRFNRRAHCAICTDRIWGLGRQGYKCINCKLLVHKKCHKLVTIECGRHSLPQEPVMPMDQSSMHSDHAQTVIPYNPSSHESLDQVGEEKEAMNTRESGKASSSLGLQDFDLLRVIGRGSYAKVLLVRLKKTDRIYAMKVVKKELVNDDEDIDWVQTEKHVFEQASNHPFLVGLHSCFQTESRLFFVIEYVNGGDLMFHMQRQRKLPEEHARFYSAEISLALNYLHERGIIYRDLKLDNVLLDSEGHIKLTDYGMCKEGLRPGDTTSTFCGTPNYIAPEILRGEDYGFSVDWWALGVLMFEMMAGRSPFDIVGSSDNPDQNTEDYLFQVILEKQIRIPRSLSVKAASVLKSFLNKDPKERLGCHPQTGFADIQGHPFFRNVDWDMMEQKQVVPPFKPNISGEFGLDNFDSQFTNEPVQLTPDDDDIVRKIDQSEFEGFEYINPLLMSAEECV
Chain of Serine/threonine-protein kinase 38-like (Homo sapiens) (Q9Y2H1 2-464 limits assumed): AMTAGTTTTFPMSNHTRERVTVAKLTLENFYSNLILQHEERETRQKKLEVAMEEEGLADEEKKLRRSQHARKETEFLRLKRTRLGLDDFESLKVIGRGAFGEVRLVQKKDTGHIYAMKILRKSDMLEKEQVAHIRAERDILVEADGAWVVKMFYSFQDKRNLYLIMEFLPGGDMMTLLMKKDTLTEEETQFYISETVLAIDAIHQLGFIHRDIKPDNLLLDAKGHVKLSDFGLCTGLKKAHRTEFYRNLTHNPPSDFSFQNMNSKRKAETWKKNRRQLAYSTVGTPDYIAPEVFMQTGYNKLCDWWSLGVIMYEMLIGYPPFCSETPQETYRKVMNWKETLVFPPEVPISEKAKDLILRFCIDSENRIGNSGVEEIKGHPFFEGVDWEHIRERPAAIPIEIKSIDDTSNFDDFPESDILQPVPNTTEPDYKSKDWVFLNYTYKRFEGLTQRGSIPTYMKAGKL
Chain of Mitogen-activated protein kinase 9 (Homo sapiens) (P45984 whole entry, looked up): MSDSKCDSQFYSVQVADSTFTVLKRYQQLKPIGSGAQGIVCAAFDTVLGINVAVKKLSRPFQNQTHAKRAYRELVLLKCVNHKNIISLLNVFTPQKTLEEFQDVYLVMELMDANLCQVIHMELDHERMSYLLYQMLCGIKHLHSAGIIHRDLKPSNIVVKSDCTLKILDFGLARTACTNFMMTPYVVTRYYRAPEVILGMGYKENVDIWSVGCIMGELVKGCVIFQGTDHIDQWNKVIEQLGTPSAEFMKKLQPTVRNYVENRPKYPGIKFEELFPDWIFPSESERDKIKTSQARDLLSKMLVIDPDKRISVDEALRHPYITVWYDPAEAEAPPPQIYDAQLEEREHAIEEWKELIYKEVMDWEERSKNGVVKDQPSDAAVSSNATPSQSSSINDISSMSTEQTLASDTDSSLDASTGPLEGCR
Chain of Maternal embryonic leucine zipper kinase (Homo sapiens) (Q14680 whole entry, looked up): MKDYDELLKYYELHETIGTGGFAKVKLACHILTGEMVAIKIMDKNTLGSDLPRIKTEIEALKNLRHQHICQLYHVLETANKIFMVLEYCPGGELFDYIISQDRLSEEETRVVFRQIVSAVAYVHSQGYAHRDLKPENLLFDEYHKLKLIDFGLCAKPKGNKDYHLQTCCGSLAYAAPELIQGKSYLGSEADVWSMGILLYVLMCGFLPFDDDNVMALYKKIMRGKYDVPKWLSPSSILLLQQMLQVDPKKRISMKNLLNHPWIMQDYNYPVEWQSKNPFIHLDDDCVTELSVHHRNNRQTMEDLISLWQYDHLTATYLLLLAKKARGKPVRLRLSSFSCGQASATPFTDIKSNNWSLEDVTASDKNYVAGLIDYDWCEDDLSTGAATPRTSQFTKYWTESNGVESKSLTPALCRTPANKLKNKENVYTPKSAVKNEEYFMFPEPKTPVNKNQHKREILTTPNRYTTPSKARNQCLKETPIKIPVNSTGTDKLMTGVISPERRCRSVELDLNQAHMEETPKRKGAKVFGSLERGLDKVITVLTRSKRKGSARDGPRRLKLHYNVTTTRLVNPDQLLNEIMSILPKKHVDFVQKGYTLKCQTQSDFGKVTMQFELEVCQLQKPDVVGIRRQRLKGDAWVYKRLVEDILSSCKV
Chain of Serine/threonine-protein kinase 26 (Homo sapiens) (Q9P289 2-416 limits assumed): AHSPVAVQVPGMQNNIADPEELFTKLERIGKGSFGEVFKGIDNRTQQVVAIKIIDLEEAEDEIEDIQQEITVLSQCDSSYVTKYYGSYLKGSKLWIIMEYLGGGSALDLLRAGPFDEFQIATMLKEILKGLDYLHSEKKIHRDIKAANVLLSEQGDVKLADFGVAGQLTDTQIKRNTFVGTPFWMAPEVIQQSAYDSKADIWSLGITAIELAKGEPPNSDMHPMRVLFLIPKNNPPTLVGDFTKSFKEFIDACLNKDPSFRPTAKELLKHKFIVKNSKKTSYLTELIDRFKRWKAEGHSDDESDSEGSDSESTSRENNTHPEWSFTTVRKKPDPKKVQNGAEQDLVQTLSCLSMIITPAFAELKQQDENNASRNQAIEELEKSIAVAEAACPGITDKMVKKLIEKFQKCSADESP

As for `CC(C)[C@H](NC(=O)c1cc(-c2cnn3cc(-c4ccc(OCCN5CCCCC5)cc4)cnc23)cs1)C(F)(F)F`, the inhibition in experiment [1] is 3%; in experiment [2], 2%; in experiment [3], 14%. The figures for the fold change (FC) in [4], in experiment [5] and in experiment [6] were 0, 0 and 0.16, respectively.
In the case of `O=C(N[C@@H](C1CC1)C(F)(F)F)c1cc(-c2cnn3cc(-c4ccc(F)cc4)cnc23)cs1`, the inhibition in experiment [7] and in experiment [11] was 0% each time. Further, the fold change (FC) in experiment [8] amounted to 0.01; in [9], 0; in [10] it was 0.
With `CNC(=O)c1ccccc1Oc1nc(Nc2cc(OC)c(OC)c(OC)c2)ncc1Br`, the fold change (FC) in [12] and in experiment [13] was 0 in each case.
